BindingDB's records for doi:10.1016/j.bioorg.2016.08.011 (Recep Tayyip Erdogan University, 2016)

Target: Alpha-glucosidase MAL12 (Saccharomyces cerevisiae (strain ATCC 204508 / S288c), UniProt P53341)
Experiment: α-Glucosidase inhibition assay
Settings: pH 6.8
Procedure: α-Glucosidase inhibition assay was performed spectrophotometrically. α-Glucosidase from Saccharomyces cerevisiae (Sigma-Aldrich) was dissolved in phosphate buffer (pH 6.8, 50 mM). Test compounds were dissolved in DMSO. In 96-well microtiter plates, 20 µL of test sample, 20 µL of enzyme (20 mU/mL) and 135 µL of buffer were added and incubated for 15 min at 37 °C. After incubation, 25 µL of p-nitrophenyl-α-D-glucopyranoside (2 mM, Sigma Aldrich) was added and change in absorbance was monitored for 20 min at 400 nm. Test compound was replaced by DMSO (10% final) as control. […] The assays were done in triplicate.

Alpha-glucosidase MAL12, sequence (P53341 whole entry): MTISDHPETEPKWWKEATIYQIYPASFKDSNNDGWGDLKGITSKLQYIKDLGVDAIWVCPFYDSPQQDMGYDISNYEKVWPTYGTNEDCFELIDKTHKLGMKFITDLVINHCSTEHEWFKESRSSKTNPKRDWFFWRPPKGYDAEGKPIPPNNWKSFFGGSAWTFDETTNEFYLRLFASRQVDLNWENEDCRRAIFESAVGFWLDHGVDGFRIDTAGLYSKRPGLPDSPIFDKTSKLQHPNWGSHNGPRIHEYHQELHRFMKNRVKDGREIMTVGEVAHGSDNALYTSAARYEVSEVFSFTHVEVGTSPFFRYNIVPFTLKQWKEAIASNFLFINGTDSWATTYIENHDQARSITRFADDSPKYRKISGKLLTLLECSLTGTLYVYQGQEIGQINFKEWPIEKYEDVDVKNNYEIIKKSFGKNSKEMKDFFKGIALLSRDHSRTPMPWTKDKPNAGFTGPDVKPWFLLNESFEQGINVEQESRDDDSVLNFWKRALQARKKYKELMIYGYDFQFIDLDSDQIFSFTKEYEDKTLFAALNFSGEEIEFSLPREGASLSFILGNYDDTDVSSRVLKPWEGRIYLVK

Compound	IC50 [µM]
NNC(=O)Cn1c(Cc2ccc(Cl)cc2Cl)nc2ccc([N+](=O)[O-])cc21 [2-[2-(2,4-Dichlorobenzyl)-6-nitro-1H-benzimidazol-1-yl]acetohydrazide (4b)]	10.5
O=C(Cn1c(Cc2ccc(Cl)cc2Cl)nc2ccccc21)NNC(=S)Nc1ccccc1 [2-{[2-(2,4-Dichlorobenzyl)-1H-benzimidazol-1-yl]acetyl}-N-phenylhydrazinecarbothioamide (6a)]	141
O=C(Cn1c(Cc2ccc(Cl)cc2Cl)nc2ccc([N+](=O)[O-])cc21)NNC(=S)Nc1ccccc1 [2-{[2-(2,4-Dichlorobenzyl)-6-nitro-1H-benzimidazol-1-yl]acetyl}-N-phenyl hydrazinecarbothioamide (6b)]	93
Sc1nnc(Cn2c(Cc3ccc(Cl)cc3Cl)nc3ccccc32)o1 [5-{[2-(2,4-Dichlorobenzyl)-1H-benzimidazol-1-yl]methyl}-1,3,4-oxadiazole-2-thiol (5a)]	254

The remaining lines, values ahead:

IC50 [µM]	Compound
158	Clc1ccc(Cc2nc3ccccc3n2Cc2nnc(Nc3ccccc3)s2)c(Cl)c1 [5-{[2-(2,4-Dichlorobenzyl)-1H-benzimidazol-1-yl]methyl}-N-phenyl-1,3,4-thiadiazol-2-amine (8a)]
26.9	O=[N+]([O-])c1ccc2nc(Cc3ccc(Cl)cc3Cl)n(Cc3nnc(S)o3)c2c1 [5-{[2-(2,4-Dichlorobenzyl)-6-nitro-1H-benzimidazol-1-yl]methyl}-1,3,4-oxadiazole-2-thiol (5b)]
40.5	O=[N+]([O-])c1cccc2nc(Cc3ccc(Cl)cc3Cl)n(Cc3nnc(S)n3-c3ccccc3)c12 [5-{[2-(2,4-Dichlorobenzyl)-7-nitro-1H-benzimidazol-1-yl]methyl}-4-phenyl-4H-1,2,4-triazole-3-thiol (7b)]
